Key:
Podosphaera leucotricha = assay: Podosphaera test (apple) / protective; type: in vivo; conditions: 240 h, apple plants, protective spray, application rate 100 g/ha, evaluation 10 days after inoculation, read-out: % Efficacy
Description: Podosphaera Test (apple)/Protective Solvent: 24.5 parts by weight of acetone • 24.5 parts by weight of dimethylacetamide Emulsifier; 1.0 part by weight of alkyl-aryl polyglycol ether To produce a suitable preparation of active compound, 1 part by weight of active compound is mixed with the stated amounts of solvent and emulsifier, and the concentrate is diluted with water to the desired concentration. To test for protectiv activity, young plants are sprayed with the preparation of active compound at the stated application rate. After the spray coating has dried on, the plants are inoculated with an aqueous spore suspension of the apple mildew pathogen Podosphaera leucotricha. The plants are then placed in a greenhouse at approximately 23° C. and a relative atmospheric humidity of approximately 70%. Evaluation is carried out 10 days after the inoculation. 0% means an efficacy which corresponds to that of the control, whereas an efficacy of 100% means that no infection is observed.

Venturia inaequalis = assay: Venturia test (apple) / protective; type: in vivo; conditions: 288 h, apple plants, protective spray, application rate 100 g/ha, evaluation 12 days after inoculation, read-out: % Efficacy
Description: Venturia Test (apple)/Protective [table] To produce a suitable preparation of active compound, 1 part by weight of active compound is mixed with the stated amounts of solvent and emulsifier, and the concentrate is diluted with water to the desired concentration. To test for protectivity activity, young plants are sprayed with the preparation of active compound at the stated application rate. After the spray coating has dried on, the plants are inoculated with an aqueous conidia suspension of the apple scab pathogen Venturia inaequalis and then remain in an incubation cabin at approximately 20° C. and 100% relative atmospheric humidity for 1 day. The plants are then placed in a greenhouse at approximately 21° C. and a relative atmospheric humidity of approximately 90%. Evaluation is carried out 12 days after the inoculation. 0% means an efficacy which corresponds to that of the control, whereas an efficacy of 100% means that no infection is observed.

Sphaerotheca fuliginea = assay: Sphaerotheca test (cucumber) / protective; type: in vivo; conditions: Podosphaera fuliginea, 240 h; cucumber plants, protective spray, application rate 100 g/ha, evaluation 10 days after inoculation; read-out: % Efficacy
Description: Sphacrotheca Test (cucumber)/Protective [table] To produce a suitable preparation of active compound, 1 part by weight of active compound is mixed with the stated amounts of solvent and emulsifier, and the concentrate is diluted with water to the desired concentration. To test for protectivity activity, young plants are sprayed with the preparation of active compound at the stated application rate. After the spray coating has dried on, the plants are inoculated with an aqueous spore suspension of Sphaerotheca fuliginea. The plants are then placed in a greenhouse at approximately 23° C. and a relative atmospheric humidity of approximately 70%. Evaluation is carried out 10 days after the inoculation. 0% means an efficacy which corresponds to that of the control, whereas an efficacy of 100% means that no infection is observed.

Puccinia recondite = assay: Puccinia test (wheat) / protective; type: in vivo; conditions: wheat plants, protective spray, application rate 250 g/ha, evaluation 10 days after inoculation
Description: Puccinia Test (wheat)/Protective [table] To produce a suitable preparation of active compound, 1 part by weight of active compound is mixed with the stated amounts of solvent and emulsifier, and the concentrate is diluted with water to the desired concentration. To test for protective activity, young plants arc sprayed with the preparation of active compound at the stated application rate. After the spray coating has dried on, the plants are sprayed with a conidia suspension of Puccinia recondite. The plants remain in an incubation cabin at 20° C. and 100% relative atmospheric humidity for 48 hours. The plants are then placed in a greenhouse at a temperature of approximately 20° C. and a relative atmospheric humidity of 80% to promote the development of rust pustules. Evaluation is carried out 10 days after the inoculation. 0% means an efficacy which corresponds to that of the control, whereas an efficacy of 100% means that no infection is observed.

Alternaria solani = assay: Alternaria test (tomato) / protective; type: in vivo; conditions: tomato plants, protective spray, application rate 750 g/ha, evaluation 7 days after inoculation
Description: Alternaria Test (tomato)/Protective [table] To produce a suitable preparation of active compound, 1 part by weight of active compound is mixed with the stated amounts of solvent and emulsifier, and the concentrate is diluted with water to the desired concentration. To test for protective activity, young tomato plants are sprayed with the preparation of active compound at the stated application rate. 1 day after the treatment, the plants are inoculated with a spore suspension of Alternaria solani and then remain at 100% rel. humidity and 20° C. for 24 h. The plants then remain at 96% rel. atmospheric humidity and a temperature of 20° C. Evaluation is carried out 7 days after the inoculation. 0% means an efficacy which corresponds to that of the control, whereas an efficacy of 100% means that no infection is observed.

[1] = tested on: Gloeophyllum trabeum, Coniophora puteana, Poria placenta, Lentinus tigrinus and Coriolus versicolor; assay: Inhibition test on giant colonies of Basidiomycetes; type: cell-based; conditions: inhibition of hyphal growth on malt extract peptone agar at 26° C., 6 ppm active compound; read-out: % efficacy
Description: Inhibition Test on Giant Colonies of Basidiomycetes Mycelium sections were removed from colonies of Gloeophyllum trabeum, Coniophora puteana, Poria placenta, Lentinus tigrinus and Coriolus versicolor and incubated on an agar medium containing malt extract peptone at 26° C. The inhibition of hyphal growth on active-compound-containing media was compared with the longitudinal growth on media without an addition of active compound and rated as per cent inhibition.

| Structure (SMILES) | pest or weed control at 100 g/ha (Podosphaera leucotricha) | pest or weed control at 100 g/ha (Venturia inaequalis) | pest or weed control at 100 g/ha (Sphaerotheca fuliginea) | % Efficacy (Puccinia recondite) | % Efficacy (Alternaria solani) | Emax at 6 ppm [1] |
| --- | --- | --- | --- | --- | --- | --- |
| CC(C)O/N=C/c1ccc(-c2ccccc2NC(=O)c2cn(C)nc2C(F)(F)F)cc1 [Example I-26] | 100% | 100% | 100% | – | – | – |
| Cn1cc(C(=O)Nc2ccccc2-c2ccc(/C=N\O)cc2)c(C(F)(F)F)n1 [Example I-41] | 98% | 100% | 72% | – | – | – |
| CO/N=C/c1ccc(-c2ccccc2NC(=O)c2sc(C)nc2C(F)(F)F)cc1 [Example I-1] | 100% | 100% | 100% | 100% | 100% | 100% |
| CO/N=C/c1ccc(-c2ccccc2NC(=O)c2sccc2C)cc1 [Example I-47] | 100% | 100% | 100% | – | – | – |
| CCO/N=C\c1ccc(-c2ccccc2NC(=O)c2sc(C)nc2C(F)(F)F)cc1 [Example I-4] | 95% | 100% | 93% | – | – | – |
| CO/N=C(\C)c1ccc(-c2ccccc2NC(=O)c2sc(C)nc2C(F)(F)F)cc1 [Example I-6] | – | – | – | – | 90% | – |
| CO/N=C\c1cc(-c2ccccc2NC(=O)c2cn(C)nc2C(F)(F)F)ccc1/C=N/OC [Example I-50] | 93% | 100% | 97% | – | – | – |
| CO/N=C/c1ccc(-c2c(C)cccc2NC(=O)c2sc(C)nc2C(F)(F)F)cc1 [Example I-51] | 100% | 100% | 100% | 100% | – | – |
| CO/N=C\c1ccc(-c2ccccc2NC(=O)c2cn(C)nc2C)cc1 [Example I-12] | – | – | – | – | – | 100% |
| CO/N=C/c1cccc(-c2ccccc2NC(=O)c2cn(C)nc2C(F)(F)F)c1 [Example I-52] | 77% | 100% | 97% | – | – | – |
| CO/N=C/c1ccc(-c2ccccc2NC(=O)c2cn(C)nc2C(F)(F)F)cc1Cl [Example I-49] | 100% | 100% | 100% | 100% | – | – |
| CCCCO/N=C/c1ccc(-c2ccccc2NC(=O)c2cn(C)nc2C(F)(F)F)cc1 [Example I-22] | 100% | 100% | 100% | – | – | – |
| CCO/N=C(/C)c1ccc(-c2ccccc2NC(=O)c2cn(C)nc2C(F)(F)F)cc1 [Example I-24] | 75% | 100% | 92% | – | – | – |
| CCCCO/N=C\c1ccc(-c2ccccc2NC(=O)c2sc(C)nc2C(F)(F)F)cc1 [Example I-3] | 100% | 100% | 100% | 100% | – | – |
| CO/N=C/c1cccc(-c2ccccc2NC(=O)c2sc(C)nc2C(F)(F)F)c1 [Example I-2] | – | – | – | – | 100% | – |
| CO/N=C\c1ccc(-c2ccccc2NC(=O)c2cccnc2Cl)cc1 [Example I-20] | 100% | 100% | 100% | 100% | – | – |
| CCCO/N=C/c1ccc(-c2ccccc2NC(=O)c2cn(C)nc2C(F)(F)F)cc1 [Example I-28] | 99% | 100% | 100% | – | – | – |
| CCCO/N=C/c1ccc(-c2ccccc2NC(=O)c2sc(C)nc2C(F)(F)F)cc1 [Example I-23] | 100% | 100% | 100% | – | – | – |
| CO/N=C/c1ccc(-c2ccccc2NC(=O)c2cn(C)nc2C(F)F)cc1 [Example I-11] | 93% | 100% | 95% | – | 95% | 100% |
| CO/N=C\c1ccc(-c2ccccc2NC(=O)c2cn(C)nc2C(F)(F)F)cc1 [Example I-10] | 88% | 88% | 88% | 100% | – | 100% |
| Cc1nc(C(F)(F)F)c(C(=O)Nc2ccccc2-c2ccc(/C=N\OC(C)C)cc2)s1 [Example I-5] | 100% | 100% | 100% | – | – | – |

Reference: patent publication US7176228B2, “Pyrazole biphenylcarboxamides” (Bayer Cropscience AG, priority 2000, dated 2007)
